# pIC50, pKi: −log10 of the molar value.
# Target: T1, HIV-1 protease (Human immunodeficiency virus type 1 group M subtype B, UniProt P04585)
# T1 construct: made in house; host or cells: E. coli BL21 (dE3)pLysS, pET30a vector
# Assay: HIV-1 Protease Inhibition Assay
# Format: biochemical
# Settings: fluorogenic substrate assay
# Excerpt: Assays of the dose-response effect of inhibitor compounds can be described as a curve expressing a degree of inhibition as a function of concentration. The curve theoretically passes through a point at which the concentration is sufficient to reduce activity of the HIV protease enzyme to a level that is 50% that of the difference between minimal and maximal enzyme activity in the assay.
# HIV-1 Protease Inhibition Assay
# The HIV-1 protease gene was subcloned into the pET30a vector (Novagen) and then transformed into BL21 (dE3)pLysS cells for protein expression. Protein expression and purification were followed according to Tang's procedure (Hong et al., Biochemistry, 1996, 35, 10627-10633). […] The inclusion body containing some bacterial proteins was thoroughly washed by using TRITON X-100, solubilized in […] and passed through the Q-sepharose column to remove the bacterial proteins which interfered with subsequent refolding steps. HIV-1 protease was refolded from the urea to an active form by dialysis. As a final step, gel filtration chromatography was used to remove impurities after refolding. Activities of purified HIV-1 protease were examined using a fluorogenic substrate, 2-aminobenzoyl-Thr-Ile-Nle-Phe(pNO2)-Gln-Arg-NH2 (Novabiochem). […] In the condition of So<<Km, v=Eo(kcat/Km)So, where Eo is the total enzyme concentration, and So is the substrate concentrate. […] Assays are carried out as described by Toth and Marshall (Toth et al., Int. J. Pept. Protein Res., 1990, 36, 544-50).
structure (smiles),measurement,value
"CC(C)(C)NC(=O)[C@@H]1C[C@@H]2CCCC[C@@H]2CN1C[C@@H](O)[C@H](Cc1ccccc1)NC(=O)OC1CCCC12CCCO2 (single isomer, unassigned) [Compound 144]",pIC50,7.40
"CC(C)(C)NC(=O)[C@@H]1C[C@@H]2CCCC[C@@H]2CN1C[C@@H](O)[C@H](Cc1ccccc1)NC(=O)OC1CCCC12CCCO2 (single isomer, unassigned) [Compound 145]",pIC50,7.02
CC(C)CN(C[C@@H](O)[C@H](Cc1ccccc1)NC(=O)OC1CCCC12CCCO2)S(=O)(=O)c1cccc(O)c1 (some centres unmarked) [Compound 75],pIC50,8.17
same,pKi,8.68
CC(C)CN(C[C@@H](O)[C@H](Cc1ccccc1)NC(=O)OC1CC2CCO[C@@H]2C1)S(=O)(=O)c1cccc(O)c1 (some centres unmarked) [Compound 79],pIC50,8.26
same,pKi,8.77
CC(C)CN(C[C@@H](O)[C@H](Cc1ccccc1)NC(=O)OC1CC2CCO[C@@H]2C1)S(=O)(=O)c1ccc(OC2CCCCO2)c(OC2CCCCO2)c1 (some centres unmarked) [Compound 87],pIC50,7.52
same,pKi,8.03
CC(C)CN(C[C@@H](O)[C@H](Cc1ccccc1)NC(=O)OC1CC2CCO[C@@H]2C1)S(=O)(=O)c1cc(OC2CCCCO2)cc(OC2CCCCO2)c1 (some centres unmarked) [Compound 99],pIC50,8.41
same,pKi,8.92
CC(C)CN(C[C@@H](O)[C@H](Cc1ccccc1)NC(=O)OC1CC2CCO[C@@H]2C1)S(=O)(=O)c1cc(O)cc(O)c1 (some centres unmarked) [Compound 100],pIC50,6.61
same,pKi,7.11
CC(C)CN(C[C@@H](O)[C@H](Cc1ccccc1)NC(=O)OC1CC2CCO[C@@H]2C1)S(=O)(=O)c1cccc(CO)c1 (some centres unmarked) [Compound 113],pIC50,8.40
CC(C)CN(C[C@@H](O)[C@H](Cc1ccccc1)NC(=O)OC1CO[C@H]2OCCC12)S(=O)(=O)c1cccc(CO)c1 (some centres unmarked) [Compound 114],pIC50,8.96
Cc1ccc(S(=O)(=O)OCc2ccc(S(=O)(=O)N(CC(C)C)C[C@@H](O)[C@H](Cc3ccccc3)NC(=O)OC3CO[C@H]4OCCC34)cc2)cc1 (some centres unmarked) [Compound 117],pIC50,8.62
same,pKi,9.13
CC(C)CN(C[C@@H](O)[C@H](Cc1ccccc1)NC(=O)OC1CO[C@H]2OCCC12)S(=O)(=O)c1ccc(CN)cc1 (some centres unmarked) [Compound 118],pIC50,8.57
same,pKi,9.05
CC(C)CN(C[C@@H](O)[C@H](Cc1ccccc1)NC(=O)OC1CO[C@H]2OCCC12)S(=O)(=O)c1cccc(/C=N/O)c1 (some centres unmarked) [Compound 120],pIC50,8.62
same,pKi,9.13
CC(C)CN(C[C@@H](O)[C@H](Cc1ccccc1)NC(=O)OC1CO[C@H]2OCCC12)S(=O)(=O)c1ccc(/C=C/CO)cc1 (some centres unmarked) [Compound 121],pIC50,8.52
CC(C)CN(C[C@@H](O)[C@H](Cc1ccccc1)NC(=O)OC1CC2CCO[C@@H]2C1)S(=O)(=O)c1ccc(CN)cc1 (some centres unmarked) [Compound 125],pIC50,8.46
same,pKi,8.96
CNCc1ccc(S(=O)(=O)N(CC(C)C)C[C@@H](O)[C@H](Cc2ccccc2)NC(=O)OC2CC3CCO[C@@H]3C2)cc1 (some centres unmarked) [Compound 126],pIC50,7.82
CC(C)CN(C[C@@H](O)[C@H](Cc1ccccc1)NC(=O)OC1CC2CCO[C@@H]2C1)S(=O)(=O)c1ccc(CN(C)C)cc1 (some centres unmarked) [Compound 127],pIC50,7.30
CC(C)CN(C[C@@H](O)[C@H](Cc1ccccc1)NC(=O)OC1CC2CCO[C@@H]2C1)S(=O)(=O)c1ccc(C=NO)cc1 (some centres unmarked) [Compound 128],pIC50,8.77
same,pKi,9.28
CC(C)CN(C[C@@H](O)[C@H](Cc1ccccc1)NC(=O)OC1CC2CCO[C@@H]2C1)S(=O)(=O)c1cccc(C=NO)c1 (some centres unmarked) [Compound 129],pIC50,8.54
same,pKi,9.05
COCc1ccc(S(=O)(=O)N(CC(C)C)C[C@@H](O)[C@H](Cc2ccccc2)NC(=O)OC2CC3CCO[C@@H]3C2)cc1 (some centres unmarked) [Compound 130],pIC50,9.10
Cc1ccc(S(=O)(=O)N(CC(C)C)C[C@@H](O)[C@H](Cc2ccccc2)NC(=O)OC2CC3CCO[C@@H]3C2)cc1 (some centres unmarked) [Compound 131],pIC50,8.85
CC(C)CN(C[C@@H](O)[C@H](Cc1ccccc1)NC(=O)OC1CC2CCO[C@@H]2C1)S(=O)(=O)c1cccc2cccnc12 (some centres unmarked) [Compound 132],pIC50,7.92
same,pKi,8.43
CC(C)CN(C[C@@H](O)[C@H](Cc1ccccc1)NC(=O)OC1CC2CCO[C@@H]2C1)S(=O)(=O)Cc1ccccc1 (some centres unmarked) [Compound 133],pIC50,7.32
same,pKi,7.82
CC(C)CN(C[C@@H](O)[C@H](Cc1ccccc1)NC(=O)OC1CC2CCO[C@@H]2C1)C(=O)c1cc(O)cc(O)c1 (some centres unmarked) [Compound 134],pIC50,5.52
same,pKi,6.03
CC(C)CN(C[C@@H](O)[C@H](Cc1ccccc1)NC(=O)OC(C)(C)C)S(=O)(=O)c1ccc(CN2CCN(C)CC2)cc1 [Compound 137],pIC50,5.68
CC(C)CN(C[C@@H](O)[C@H](Cc1ccccc1)NC(=O)O[C@H]1CCOC1)S(=O)(=O)c1ccc(CN2CCN(C)CC2)cc1 [Compound 138],pIC50,6.57
CC(C)CN(C[C@@H](O)[C@H](Cc1ccccc1)NC(=O)O[C@H]1CCOC1)S(=O)(=O)c1ccc(CN2CCOCC2)cc1 [Compound 139],pIC50,6.01
CC(C)(C)NC(=O)[C@@H]1C[C@@H]2CCCC[C@@H]2CN1C[C@@H](O)[C@H](Cc1ccccc1)NC(=O)OC1CC2CCO[C@@H]2C1 (some centres unmarked) [Compound 143],pIC50,8.52
CC(C)(C)NC(=O)[C@@H]1C[C@@H]2CCCC[C@@H]2CN1C[C@@H](O)[C@H](Cc1ccccc1)NC(=O)O[C@H]1CCC2(CCCO2)C1 (some centres unmarked) [Compound 145a],pIC50,6.30
CC(C)(C)NC(=O)[C@@H]1C[C@@H]2CCCC[C@@H]2CN1C[C@@H](O)[C@H](Cc1ccccc1)NC(=O)OC1CC[C@@]2(CCCO2)C1 (some centres unmarked) [Compound 145b],pIC50,< 5.70
COc1ccc(S(=O)(=O)N(CC(C)C)C[C@@H](O)[C@H](Cc2ccccc2)NC(=O)OC2CC[C@@]3(CCCO3)C2)cc1 (some centres unmarked) [Compound 145c],pIC50,7.82
COc1ccc(S(=O)(=O)N(CC(C)C)C[C@@H](O)[C@H](Cc2ccccc2)NC(=O)O[C@H]2CC[C@]3(CCCO3)C2)cc1 [Compound 145d],pIC50,8.34
Cc1ccc(S(=O)(=O)N(CC(C)C)C[C@@H](O)[C@H](CC2CCN(C(=O)c3ccccc3)CC2)NC(=O)OC2CO[C@H]3OCCC23)cc1 (some centres unmarked) [Compound 146],pIC50,8.74
Cc1ccc(S(=O)(=O)N(CC(C)C)C[C@@H](O)[C@H](CC2CCN(C(=O)c3ccccc3)CC2)NC(=O)O[C@H]2CCOC2)cc1 [Compound 147],pIC50,7.22
Cc1ccc(S(=O)(=O)N(CC(C)C)C[C@@H](O)[C@H](CC2CCN(C(=O)c3ccccc3)CC2)NC(=O)OC2CCCC23CCCO3)cc1 (some centres unmarked) [Compound 148],pIC50,6.73
Cc1ccc(S(=O)(=O)N(CC(C)C)C[C@@H](O)[C@H](CC2CCN(Cc3ccccc3)CC2)NC(=O)OC2CO[C@H]3OCCC23)cc1 (some centres unmarked) [Compound 149],pIC50,7.70
Cc1ccc(S(=O)(=O)N(CC(C)C)C[C@@H](O)[C@H](CC2CCN(Cc3ccccc3)CC2)NC(=O)O[C@H]2CCOC2)cc1 [Compound 150],pIC50,6.27
CC(C)CN(C[C@@H](O)[C@H](Cc1ccccc1)NC(=O)OC1CO[C@H]2OCCC12)S(=O)(=O)c1ccc(Cl)c(O)c1 (some centres unmarked) [Compound 151],pIC50,8.51
same,pKi,9.00
CC(C)CN(C[C@@H](O)[C@H](Cc1ccccc1)NC(=O)OC1CC2CCO[C@@H]2C1)S(=O)(=O)c1ccc(Cl)c(O)c1 (some centres unmarked) [Compound 152],pIC50,8.28
same,pKi,8.74
CC(C)CN(C[C@@H](O)[C@H](Cc1ccccc1)NC(=O)O[C@H]1CCOC1)S(=O)(=O)c1ccc(Cl)c(O)c1 [Compound 153],pIC50,8.44
same,pKi,8.96
O=C(N[C@@H](Cc1ccccc1)[C@H](O)CN(CCN1CCOCC1)S(=O)(=O)c1ccc(Cl)c(O)c1)OC1CO[C@H]2OCCC12 (some centres unmarked) [Compound 154],pIC50,7.60
same,pKi,8.11
O=C(N[C@@H](Cc1ccccc1)[C@H](O)CN(CCN1CCOCC1)S(=O)(=O)c1ccc(Cl)c(O)c1)OC1CC2CCO[C@@H]2C1 (some centres unmarked) [Compound 155],pIC50,7.80
same,pKi,8.31
Cc1ccc(S(=O)(=O)N(CC(C)C)C[C@@H](O)[C@H](Cc2ccccc2)NC(=O)OC2CO[C@H]3OCCC23)cc1CO (some centres unmarked) [Compound 156],pIC50,8.51
same,pKi,9.01
Cc1ccc(S(=O)(=O)N(CC(C)C)C[C@@H](O)[C@H](Cc2ccccc2)NC(=O)OC2CC3CCO[C@@H]3C2)cc1CO (some centres unmarked) [Compound 157],pIC50,8.55
same,pKi,9.06
Cc1ccc(S(=O)(=O)N(CCN(C)C)C[C@@H](O)[C@H](Cc2ccccc2)NC(=O)OC2CO[C@H]3OCCC23)cc1CO (some centres unmarked) [Compound 158],pIC50,6.98
same,pKi,7.49
Cc1ccc(S(=O)(=O)N(CCN(C)C)C[C@@H](O)[C@H](Cc2ccccc2)NC(=O)O[C@H]2C[C@H]3CCO[C@H]3C2)cc1CO [Compound 159],pIC50,6.69
same,pKi,7.20
Cc1ccc(S(=O)(=O)N(CCN(C)C)C[C@@H](O)[C@H](Cc2ccccc2)NC(=O)O[C@@H]2CO[C@@H]3OCCC[C@@H]32)cc1CO [Compound 160],pIC50,6.64
same,pKi,7.14
Cc1ccc(S(=O)(=O)N(C[C@@H](O)[C@H](Cc2ccccc2)NC(=O)OC2CO[C@H]3OCCC23)C2CCOC2)cc1CO (some centres unmarked) [Compound 161],pIC50,8.70
same,pKi,8.80
Cc1ccc(S(=O)(=O)N(C[C@@H](O)[C@H](Cc2ccccc2)NC(=O)OC2CC3CCO[C@@H]3C2)C2CCOC2)cc1CO (some centres unmarked) [Compound 162],pIC50,8.39
same,pKi,8.89

# — US20070082883A1, “HIV protease inhibitors” (THE BOARD OF TRUSTEES OF THE UNIVERSITY OF ILLINOIS, priority 2002, published 2007)
